No end group written: not given here.
What was measured:
Format in all cases: cell-based
[1] = system: P. aeruginosa; assay: MIC of peptide alone or with 20% of antibiotic MIC, procedure of Example 1; conditions: for MIC of antibiotic: antibiotic alone against P. aeruginosa; for MIC Peptide with Aztreonam: peptide plus 20% of the MIC of aztreonam, Table 5; for MIC Peptide with Bacitracin: peptide plus 20% of the MIC of bacitracin, Table 3
Protocol: (§1) S. aureus organisms are grown to mid log phase, and then diluted to 10^3 organisms/ml in 1/2 strength trypticase soy broth. After the incubation of the organisms, the minimal inhibitory concentration in ug/ml for Z-52 MG-2(amide-terminated), PGLa, CPF Z-50, A-97, Magainin II, and Z-74 peptides, against S. aureus was measured when each peptide was added alone to the organisms. "MG-2 (amide)" is amide-terminated Magainin II, and "Magainin II" is carboxy-terminated Magainin II. A-97 peptide is of the following structure:
(§2) The minimal inhibitory concentration (MIC) for each peptide was then measured when 20% of the minimal inhibitory concentration of bacitracin, tobramycin or gentamicin, respecitvely, is added to the organisms along with the peptide. The gentamicin employed is a mixture of Gentamicin C1, Gentamicin C1a, and Gentamicin C2. […] CPF Z-50 peptide has structure number (8) of the CPF peptides hereinabove described. Z-52 peptide is of the structure (ALSK)6 NH2. The minimal inhibitory concentrations are given below in Table I.
In this example, P. aeruginosa organisms were incubated according to the procedure described in Example 1. After the incubation, the minimal inhibitory concentrations of the peptides hereinabove described alone, as well as the peptides in combination with 20% of the MIC of bacitracin, were then measured.
(§3) In this example, E. coli or P. aeruginosa organisms were incubated according to the procedure described in Example 1. After, the incubation, the minimal inhibitory concentrations of the peptides hereinabove described alone, as well as the peptides in combination with 20% of the minimal inhibitory concentrations (MIC) of benzyl penicillin or ampicillin, were then measured. […]
(§4) E. coli and P. aeruoginosa organisms were incubated according to the procedure described in Example 1. After the incubation, the minimal inhibitory concentrations of the peptides hereinabove described alone, as well as the peptides in combination with 20% of the MIC of the monobactam antibiotic aztreonam, were then measured. The MIC of aztreonam against E. coli is a 2 μg/ml, and against P. aeruginosa is 8 μg/ml.

[2] = system: S. aureus; assay: as above; conditions: for MIC of antibiotic: antibiotic alone against S. aureus; for MIC Peptide alone / MIC With Added Antibiotic Bacitracin / MIC With Added Antibiotic Gentamicin / MIC With Added Antibiotic Tobramycin: S. aureus; for MIC Peptide alone: Table I; for MIC With Added Antibiotic Bacitracin: peptide plus 20% of the MIC of bacitracin; for MIC With Added Antibiotic Gentamicin: peptide plus 20% of the MIC of gentamicin; for MIC With Added Antibiotic Tobramycin: peptide plus 20% of the MIC of tobramycin
Protocol: as §1, §2

[3] = system: E. coli; assay: as above; conditions: for MIC of antibiotic: antibiotic alone against E. coli; for MIC Peptide alone / MIC Peptide and Ampicillin / MIC Peptide with Aztreonam / MIC Peptide with Bacitracin / MIC Peptide and Benzyl penicillin: E. coli; for MIC Peptide and Ampicillin: peptide plus 20% of the MIC of ampicillin; for MIC Peptide and Ampicillin / MIC Peptide and Benzyl penicillin: Table 4; for MIC Peptide with Aztreonam: peptide plus 20% of the MIC of aztreonam, Table 5; for MIC Peptide with Bacitracin: peptide plus 20% of the MIC of bacitracin, Table 2; for MIC Peptide and Benzyl penicillin: peptide plus 20% of the MIC of benzyl penicillin
Protocol: as §1, §2
E. coli organisms were incubated according to the procedure described in Example 1. After the incubation, the minimal inhibitory concentrations against E. coli of each of the peptides described in Example 1 alone, as well as of each peptide when employed in combination with 20% of the MIC for bactracin, were then measured.
as §3, §4

[4] = system: P. aeruginosa; assay: MIC of peptide with or without 10 μg/ml erythromycin, Example 6
Protocol: (§5) For each of the organisms listed in Table 6 below, 10^5 organisms were mid-log inoculated into 200 ml of one-half strength trypticase soy broth. The organisms were incubated for 15 hrs. at 37° C. […] The minimal inhibitory concentrations in μg/ml are given below in Table 6. […] K. pneumoniae, P. aeruginosa, and E. coli are Gram-negative bacteria.

[5] = system: K. pneumoniae; assay: as above
Protocol: as §5

[6] = system: E. coli; assay: as above
Protocol: as §5

[7] = system: S. aureus; assay: Erythromycin and peptide against S. aureus, Example 6
Protocol: For each of the organisms listed in Table 6 below, 10^5 organisms were mid-log inoculated into 200 ml of one-half strength trypticase soy broth. The organisms were incubated for 15 hrs. at 37° C. […] K. pneumoniae, P. aeruginosa, and E. coli are Gram-negative bacteria.

[8] = P. aeruginosa, Example 3, Table 3
[9] = P. aeruginosa, Example 5, Table 5
[10] = peptide with erythromycin 10 μg/ml (+)
[11] = peptide, no erythromycin added (-)

Molecule | MIC of antibiotic [1] [µg/mL] | MIC of antibiotic [2] [µg/mL] | MIC of antibiotic [3] [µg/mL] | MIC Peptide alone [1, 8] [µg/mL] | MIC Peptide alone [1, 9] [µg/mL] | MIC Peptide with Aztreonam ([1]; P. aeruginosa) [µg/mL] | MIC Peptide with Bacitracin ([1]; P. aeruginosa) [µg/mL] | MIC Peptide alone [2] [µg/mL] | MIC With Added Antibiotic Bacitracin [2] [µg/mL] | MIC With Added Antibiotic Gentamicin [2] [µg/mL] | MIC With Added Antibiotic Tobramycin [2] [µg/mL] | MIC Peptide alone ([3]; Example 2, Table 2) [µg/mL] | MIC Peptide alone ([3]; Example 4, Table 4) [µg/mL] | MIC Peptide alone ([3]; Example 5, Table 5) [µg/mL] | MIC Peptide and Ampicillin [3] [µg/mL] | MIC Peptide with Aztreonam [3] [µg/mL] | MIC Peptide with Bacitracin [3] [µg/mL] | other results
bacitracin [reference compound] | > 256 | 2 | 64 | – | – | – | – | – | – | – | – | – | – | – | – | – | – | –
GFASFLGKALKAALKIGANLLGGTPQQ [Peptide Z-50, structure number (8) of the CPF peptides] | – | – | – | 32 | 64 | 32 | 4 | 16 | 16 | 2 | 8 | 16 | 32 | 32 | 8 | 8 | 16 | Minimal Inhibitory Concentration [4, 10]: < 0.5 µg/mL; Minimal Inhibitory Concentration [4, 11]: < 5.0 µg/mL; Minimal Inhibitory Concentration [5, 10]: < 0.5 µg/mL; Minimal Inhibitory Concentration [5, 11]: < 0.5 µg/mL; Minimal Inhibitory Concentration [6, 10]: < 0.5 µg/mL; Minimal Inhibitory Concentration [6, 11]: < 5.0 µg/mL
gentamicin [reference compound] | > 256 | 256 | 2 | – | – | – | – | – | – | – | – | – | – | – | – | – | – | –
C[C@H]1[C@H](NC(=O)/C(=N\OC(C)(C)C(=O)O)c2csc(N)n2)C(=O)N1S(=O)(=O)O [aztreonam, reference compound] | 8 | – | 2 | – | – | – | – | – | – | – | – | – | – | – | – | – | – | –
CC1(C)S[C@@H]2[C@H](NC(=O)[C@H](N)c3ccccc3)C(=O)N2[C@H]1C(=O)O [ampicillin, alpha-amino-benzyl penicillin, reference compound] | – | – | 4 | – | – | – | – | – | – | – | – | – | – | – | – | – | – | –
CC[C@H]1OC(=O)[C@H](C)[C@@H](O[C@H]2C[C@@](C)(OC)[C@@H](O)[C@H](C)O2)[C@H](C)[C@@H](O[C@@H]2O[C@H](C)C[C@H](N(C)C)[C@H]2O)[C@](C)(O)C[C@@H](C)C(=O)[C@H](C)[C@@H](O)[C@]1(C)O [Erythromycin, reference compound] | – | – | – | – | – | – | – | – | – | – | – | – | – | – | – | – | – | Minimal Inhibitory Concentration ([4]; erythromycin alone): > 100 µg/mL; Minimal Inhibitory Concentration ([5]; erythromycin alone): > 100 µg/mL; Minimal Inhibitory Concentration ([6]; erythromycin alone): > 100 µg/mL
GIGKFLHSAKKFGKAFVGEIMNS-NH2 [MG-2 amide] | – | – | – | 128 | 128 | 64 | 8 | 256 | 32 | 4 | 32 | 16 | 64 | 64 | 8 | 32 | 4 | MIC Peptide alone ([1]; P. aeruginosa, Example 4, Table 4): 256 µg/mL; MIC Peptide and Ampicillin ([1]; P. aeruginosa, peptide plus 20% of the MIC of ampicillin, Table 4): 128 µg/mL; MIC Peptide and Benzyl penicillin ([1]; P. aeruginosa, peptide plus 20% of the MIC of benzyl penicillin, Table 4): 128 µg/mL; MIC Peptide and Benzyl penicillin [3]: 32 µg/mL; activity of combination against S. aureus ([7]; 10 μg/ml of amide-terminated Magainin II and 0.03 μg/ml of erythromycin): effective biological activity; concentration required for effective biological activity ([7]; S. aureus, substance alone): greater than 250 μg/ml; Minimal Inhibitory Concentration [4, 10]: < 5.0 µg/mL; Minimal Inhibitory Concentration [4, 11]: 50 to 100 µg/mL; Minimal Inhibitory Concentration [5, 10]: < 0.5 µg/mL; Minimal Inhibitory Concentration [5, 11]: 5 µg/mL; Minimal Inhibitory Concentration [6, 10]: 0.5 µg/mL; Minimal Inhibitory Concentration [6, 11]: 5 µg/mL
GIGKFLHSAKKFGKAFVGEIMNS [Magainin II] | – | – | – | 256 | 256 | 128 | 16 | 256 | 128 | 4 | 32 | 32 | 64 | 64 | 16 | 16 | 8 | MIC Peptide and Benzyl penicillin [3]: 32 µg/mL
NC[C@H]1O[C@H](O[C@H]2[C@H](O)[C@@H](O[C@H]3O[C@H](CO)[C@@H](O)[C@H](N)[C@H]3O)[C@H](N)C[C@@H]2N)[C@H](N)C[C@@H]1O [tobramycin, Tobramycin, reference compound] | 128 | > 256 | 2 | – | – | – | – | – | – | – | – | – | – | – | – | – | – | –
CC1(C)S[C@@H]2[C@H](NC(=O)Cc3ccccc3)C(=O)N2[C@H]1C(=O)O [benzyl penicillin, reference compound] | – | – | 64 | – | – | – | – | – | – | – | – | – | – | – | – | – | – | –
